{"source": "patent US20030203047A1", "about": "(priority 2002, published 2003)", "origin": "cited, not measured here", "key": {"[1]": {"conditions": "supplementation"}, "[2]": {"conditions": "supplementation", "remark": "listed apart in the source"}, "young female rats": {"system": "young female rats", "conditions": "constant infusion"}, "aromatase": {"biological_target": "T1, aromatase (Homo sapiens, UniProt P11511)", "T1 sequence (P11511 1-503)": "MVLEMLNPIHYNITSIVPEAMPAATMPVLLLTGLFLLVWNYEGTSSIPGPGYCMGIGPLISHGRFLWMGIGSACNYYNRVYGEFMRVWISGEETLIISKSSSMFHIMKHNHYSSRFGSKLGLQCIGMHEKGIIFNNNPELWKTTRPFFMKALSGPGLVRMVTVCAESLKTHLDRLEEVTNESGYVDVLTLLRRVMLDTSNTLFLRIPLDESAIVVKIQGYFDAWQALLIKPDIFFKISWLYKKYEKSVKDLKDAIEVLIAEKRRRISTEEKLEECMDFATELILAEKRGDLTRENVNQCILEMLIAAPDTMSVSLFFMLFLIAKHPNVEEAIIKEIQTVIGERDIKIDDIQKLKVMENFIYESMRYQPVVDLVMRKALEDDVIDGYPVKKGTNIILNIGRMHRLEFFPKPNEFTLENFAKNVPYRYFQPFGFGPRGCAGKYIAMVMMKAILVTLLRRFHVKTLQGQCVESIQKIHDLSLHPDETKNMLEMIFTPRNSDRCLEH", "conditions": "compared with chrysin, AG and ANG"}, "[3]": {"conditions": "for plasma testosterone: panhypopituitarism"}, "androgen receptor": {"system": "androgen receptor", "conditions": "seminal vesicle; relative to the unreduced steroid"}, "hypogonadal men": {"system": "hypogonadal men", "conditions": "for waking erection: Asian group of hypogonadal men; for sexual interest and activity, spontaneous erection: Caucasian group of hypogonadal men"}, "[4]": {"system": "prostate and seminal vesicle weights; levator ani muscles"}, "healthy young men": {"system": "healthy young men", "conditions": "300 mg/wk for six weeks"}, "HIV-infected men": {"system": "HIV-infected men", "conditions": "pharmacological doses"}, "[5]": {"conditions": "in vivo"}, "patients on dialysis": {"system": "patients on dialysis", "conditions": "compared with placebo"}}, "note": "Where two headings read alike, the source gives them in different places."}
{"smiles": "C[C@]12CC[C@H]3[C@@H](CCC4=C[C@@H](O)CC[C@@]43C)[C@@H]1CC[C@@H]2O", "note": "[4-androstenediol]", "values": [{"measurement": "serum testosterone", "setting": "[1]", "result": "elevations"}, {"measurement": "urine testosterone concentration relative to 4-androstenedione", "setting": "[2]", "result": 10, "unit": "fold"}]}
{"smiles": "C[C@]12CCC(=O)C=C1CC[C@@H]1[C@@H]2CC[C@]2(C)C(=O)CC[C@@H]12", "note": "[4-androstenedione]", "values": [{"measurement": "serum testosterone", "setting": "[1]", "result": "elevations"}]}
{"smiles": "C[C@]12CC[C@H]3[C@@H](CC=C4C[C@@H](O)CC[C@@]43C)[C@@H]1CC[C@@H]2O", "note": "[5-androstenediol]", "values": [{"measurement": "proportion of protein in the body composition", "setting": "young female rats", "result": "increased"}]}
{"smiles": "COc1ccc(-c2coc3cc(O)cc(O)c3c2=O)cc1", "note": "[Biochanin A, 5,7-dihydroxy-4′-methoxyisoflavone]", "values": [{"measurement": "aromatase inhibition (in words)", "setting": "aromatase", "result": "to a lesser degree"}]}
{"smiles": "C[C@]12CC[C@H](O)CC1=CC[C@@H]1[C@@H]2CC[C@]2(C)C(=O)CC[C@@H]12", "note": "[DHEA, dehydro-epiandrosterone]", "values": [{"measurement": "plasma testosterone", "setting": "[3]; 50 mg dose", "result": "levels similar to those observed in young women"}, {"measurement": "increase of plasma delta 4-androstenedione", "setting": "[3]; 50 mg or 200 mg", "result": "significant and dose dependent"}, {"measurement": "plasma estrogens, particularly estradiol", "setting": "[3]; 50 mg or 200 mg", "result": "significant and dose dependent increase"}, {"measurement": "plasma testosterone", "setting": "[3]; 200 mg dose", "result": "slightly below the levels observed in normal men"}, {"measurement": "increase of plasma dihydrotestosterone levels", "setting": "[3]; both doses", "result": "small"}]}
{"smiles": "C[C@]12CCC(=O)C[C@@H]1CC[C@@H]1[C@@H]2CC[C@]2(C)[C@@H](O)CC[C@@H]12", "note": "[DHT, 5α-androstan-17β-ol-3-one]", "values": [{"measurement": "change of affinity to the androgen receptor on 5-alpha-reduction", "setting": "androgen receptor", "result": "increasing by seven- to eight-fold"}]}
{"smiles": "C[C@@H]1CC2=CC(=O)CC[C@@H]2[C@H]2CC[C@]3(C)[C@@H](O)CC[C@H]3[C@@H]21", "note": "[MENT, 7α-methyl-19-nor-testosterone]", "values": [{"measurement": "waking erection", "setting": "hypogonadal men", "result": "increased"}, {"measurement": "sexual interest and activity, spontaneous erection", "setting": "hypogonadal men", "result": "significant increases"}, {"measurement": "androgenic potency relative to testosterone", "setting": "[4]; measured by prostate and seminal vesicle weights", "result": "four- to five-times"}, {"measurement": "anabolic potency relative to testosterone", "setting": "[4]; measured in the levator ani muscles", "result": "ten-times"}]}
{"smiles": "CCCCCCC(=O)O[C@H]1CC[C@H]2[C@@H]3CCC4=CC(=O)CC[C@]4(C)[C@H]3CC[C@]12C", "note": "[TE, testosterone enanthate]", "values": [{"measurement": "waking erection", "setting": "hypogonadal men", "result": "increased"}, {"measurement": "sexual interest and activity, spontaneous erection", "setting": "hypogonadal men", "result": "significant increases"}, {"measurement": "circumferences with significant increases (of fifteen)", "setting": "healthy young men", "result": "shoulders"}]}
{"smiles": "C[C@]12CC[C@H]3[C@@H](CCC4=CC(=O)CC[C@@]43C)[C@@H]1CC[C@@H]2O", "note": "[Testosterone]", "values": [{"measurement": "proportion of protein in the body composition", "setting": "young female rats", "result": "increased"}]}
{"smiles": "CCCCCCCCCC(=O)O[C@H]1CC[C@H]2[C@@H]3CCC4=CC(=O)CC[C@@H]4[C@H]3CC[C@]12C", "note": "[nandrolone decanoate]", "values": [{"measurement": "total weight, lean body mass, body cell mass, muscle size and strength", "setting": "HIV-infected men", "result": "significant gains"}, {"measurement": "circumferences with significant increases (of fifteen)", "setting": "healthy young men", "result": "shoulders and chest"}]}
{"smiles": "C[C@]12CC[C@H]3[C@@H](CCC4=CC(=O)CC[C@@H]43)[C@@H]1CC[C@@H]2O", "note": "[nandrolone, 19-nor-testosterone]", "values": [{"measurement": "adverse finding associated with use", "setting": "[5]", "result": "azoospermia"}, {"measurement": "decrease in HDL-cholesterol", "setting": "[5]", "result": "25-27%"}, {"measurement": "lean body mass", "setting": "patients on dialysis", "result": "increased significantly"}, {"measurement": "energy expenditure", "setting": "young female rats", "result": "increased"}]}
